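Where inhibition never reached the appropriate level, the endpoint shown equals the highest concentration tested. Otherwise, values were interpolated linearly from a five-concentration, 48-hour dose response in 96-well plates. The concentration for 50% growth inhibition is given as GI50. TGI: total growth inhibition.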
Assays:
Assay in all cases: NCI anticancer screen, dose series, 48 h
HCT-15 colon = test system: HCT-15 colon
HT29 colon = test system: HT29 colon
DU-145 prostate = test system: DU-145 prostate
LOX IMVI melanoma = test system: LOX IMVI melanoma
CAKI-1 renal = test system: CAKI-1 renal
UO-31 renal = test system: UO-31 renal
HS 578T breast = test system: HS 578T breast
SK-MEL-28 melanoma = test system: SK-MEL-28 melanoma
MDA-MB-435 = test system: MDA-MB-435
SNB-75 CNS = test system: SNB-75 CNS
SK-OV-3 ovarian = test system: SK-OV-3 ovarian
KM12 colon = test system: KM12 colon
SK-MEL-5 melanoma = test system: SK-MEL-5 melanoma
NCI-H522 lung = test system: NCI-H522 lung
EKVX NSCLC = test system: EKVX NSCLC
NCI-H226 lung = test system: NCI-H226 lung
A549 NSCLC = test system: A549 NSCLC
NCI/ADR-RES ovarian = test system: NCI/ADR-RES ovarian
MOLT-4 leukemia = test system: MOLT-4 leukemia
T-47D breast = test system: T-47D breast
CCRF-CEM leukemia = test system: CCRF-CEM leukemia
MCF7 breast = test system: MCF7 breast
SN12C renal = test system: SN12C renal
SF-539 CNS = test system: SF-539 CNS
NCI-H23 lung = test system: NCI-H23 lung
MDA-MB-231 breast = test system: MDA-MB-231 breast
OVCAR-5 ovarian = test system: OVCAR-5 ovarian
PC-3 prostate = test system: PC-3 prostate
SW-620 colon = test system: SW-620 colon
HCT-116 colon = test system: HCT-116 colon
OVCAR-8 ovarian = test system: OVCAR-8 ovarian
RPMI-8226 leukemia = test system: RPMI-8226 leukemia
SNB-19 CNS = test system: SNB-19 CNS
M14 melanoma = test system: M14 melanoma
NCI-H460 lung = test system: NCI-H460 lung
BT-549 breast = test system: BT-549 breast
MALME-3M melanoma = test system: MALME-3M melanoma
ACHN renal = test system: ACHN renal
COLO 205 colon = test system: COLO 205 colon
TK-10 renal = test system: TK-10 renal
OVCAR-4 ovarian = test system: OVCAR-4 ovarian
SF-268 CNS = test system: SF-268 CNS
U251 CNS = test system: U251 CNS
HCC-2998 colon = test system: HCC-2998 colon
786-0 renal = test system: 786-0 renal
OVCAR-3 ovarian = test system: OVCAR-3 ovarian
UACC-257 melanoma = test system: UACC-257 melanoma
SR leukemia = test system: SR leukemia
A498 renal = test system: A498 renal
SF-295 CNS = test system: SF-295 CNS
RXF 393 renal = test system: RXF 393 renal
IGROV1 ovarian = test system: IGROV1 ovarian
UACC-62 melanoma = test system: UACC-62 melanoma
HOP-62 NSCLC = test system: HOP-62 NSCLC

N#Cc1c(N)nc(NCc2ccccc2)c(C#N)c1-c1ccc(Cl)cc1
GI50 (HCT-15 colon): 18.8 µM
TGI (HCT-15 colon): > 100 µM
GI50 (HT29 colon): 22.3 µM
TGI (HT29 colon): > 100 µM
GI50 (DU-145 prostate): 17.7 µM
TGI (DU-145 prostate): 55.7 µM
GI50 (LOX IMVI melanoma): 12.4 µM
TGI (LOX IMVI melanoma): 29.3 µM
GI50 (CAKI-1 renal): 20.1 µM
TGI (CAKI-1 renal): 46.7 µM
GI50 (UO-31 renal): 31.9 µM
TGI (UO-31 renal): > 100 µM
GI50 (HS 578T breast): 15.6 µM
TGI (HS 578T breast): 40.4 µM
GI50 (SK-MEL-28 melanoma): 25.9 µM
TGI (SK-MEL-28 melanoma): > 100 µM
GI50 (MDA-MB-435): 15.7 µM
TGI (MDA-MB-435): 43.6 µM
GI50 (SNB-75 CNS): 22.1 µM
TGI (SNB-75 CNS): 72.3 µM
GI50 (SK-OV-3 ovarian): 33.2 µM
TGI (SK-OV-3 ovarian): > 100 µM
GI50 (KM12 colon): 25.2 µM
TGI (KM12 colon): > 100 µM
GI50 (SK-MEL-5 melanoma): 25.9 µM
TGI (SK-MEL-5 melanoma): > 100 µM
GI50 (NCI-H522 lung): 20.9 µM
TGI (NCI-H522 lung): 57.5 µM
GI50 (EKVX NSCLC): 27.3 µM
TGI (EKVX NSCLC): 79 µM
GI50 (NCI-H226 lung): 10.6 µM
TGI (NCI-H226 lung): 31.2 µM
GI50 (A549 NSCLC): 28.3 µM
TGI (A549 NSCLC): > 100 µM
GI50 (NCI/ADR-RES ovarian): 19.8 µM
TGI (NCI/ADR-RES ovarian): 60 µM
GI50 (MOLT-4 leukemia): 34.3 µM
TGI (MOLT-4 leukemia): > 100 µM
GI50 (T-47D breast): 27.3 µM
TGI (T-47D breast): > 100 µM
GI50 (CCRF-CEM leukemia): 28.2 µM
TGI (CCRF-CEM leukemia): > 100 µM
GI50 (MCF7 breast): 13.8 µM
TGI (MCF7 breast): 83.1 µM
GI50 (SN12C renal): 16.1 µM
TGI (SN12C renal): 38.3 µM
GI50 (SF-539 CNS): 25.9 µM
TGI (SF-539 CNS): 68.1 µM
GI50 (NCI-H23 lung): 22.8 µM
TGI (NCI-H23 lung): 80 µM
GI50 (MDA-MB-231 breast): 14.2 µM
TGI (MDA-MB-231 breast): 33.2 µM
GI50 (OVCAR-5 ovarian): 24.2 µM
TGI (OVCAR-5 ovarian): 76.1 µM
GI50 (PC-3 prostate): 17.9 µM
TGI (PC-3 prostate): 48.7 µM
GI50 (SW-620 colon): 16.2 µM
TGI (SW-620 colon): 96.9 µM
GI50 (HCT-116 colon): 15.8 µM
TGI (HCT-116 colon): 41.3 µM
GI50 (OVCAR-8 ovarian): 19 µM
TGI (OVCAR-8 ovarian): 57.2 µM
GI50 (RPMI-8226 leukemia): 18.9 µM
TGI (RPMI-8226 leukemia): 97.1 µM
GI50 (SNB-19 CNS): 31.6 µM
TGI (SNB-19 CNS): > 100 µM
GI50 (M14 melanoma): 20 µM
TGI (M14 melanoma): 99.7 µM
GI50 (NCI-H460 lung): 10.2 µM
TGI (NCI-H460 lung): 28.7 µM
GI50 (BT-549 breast): 19.6 µM
TGI (BT-549 breast): 60.4 µM
GI50 (MALME-3M melanoma): 14.4 µM
TGI (MALME-3M melanoma): 54.5 µM
GI50 (ACHN renal): 13.4 µM
TGI (ACHN renal): 32.8 µM
GI50 (COLO 205 colon): 46.9 µM
TGI (COLO 205 colon): > 100 µM
GI50 (TK-10 renal): 14.4 µM
TGI (TK-10 renal): 32.8 µM
GI50 (OVCAR-4 ovarian): 9.57 µM
TGI (OVCAR-4 ovarian): > 100 µM
GI50 (SF-268 CNS): 14.3 µM
TGI (SF-268 CNS): 35.6 µM
GI50 (U251 CNS): 12.4 µM
TGI (U251 CNS): 26.9 µM
GI50 (HCC-2998 colon): 71.1 µM
TGI (HCC-2998 colon): > 100 µM
GI50 (786-0 renal): 20 µM
TGI (786-0 renal): 38.6 µM
GI50 (OVCAR-3 ovarian): 14.7 µM
TGI (OVCAR-3 ovarian): 37.1 µM
GI50 (UACC-257 melanoma): 67.9 µM
TGI (UACC-257 melanoma): > 100 µM
GI50 (SR leukemia): 13.3 µM
TGI (SR leukemia): 52.8 µM
GI50 (A498 renal): 10.4 µM
TGI (A498 renal): 26.4 µM
GI50 (SF-295 CNS): 14.2 µM
TGI (SF-295 CNS): 34.4 µM
GI50 (RXF 393 renal): 26.5 µM
TGI (RXF 393 renal): 74.1 µM
GI50 (IGROV1 ovarian): 13.5 µM
TGI (IGROV1 ovarian): 32.4 µM
GI50 (UACC-62 melanoma): 14.7 µM
TGI (UACC-62 melanoma): 33.5 µM
GI50 (HOP-62 NSCLC): 16.1 µM
TGI (HOP-62 NSCLC): 31.2 µM
